Laboratory results published in patent US20240116892A1, “HETEROCYCLIC AMIDE AND UREA COMPOUNDS AS JAK2 INHIBITORS” (Ajax Therapeutics, Inc., priority 2022, published 2024).

Biological target: JAK2 (JH1 domain-catalytic, Y1007F, Y1008F) kinase (Homo sapiens (Human), UniProt O60674, Y1007F/Y1008F)
Assay: JAK2 JH1 Domain Binding Assay
Settings: qPCR readout
Summary of the method: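 JH1 catalytic domain (Y1007F/Y1008F) expressed as NFkB DNA-binding-domain fusion in HEK293 cells, DNA-tagged. Competition with immobilized biotinylated ligand on streptavidin beads, 1 h at RT in PBS/Tween/BSA/DTT; bound kinase eluted with free ligand and quantified by qPCR.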

Chain of JAK2 (JH1 domain-catalytic, Y1007F, Y1008F) kinase (O60674 849-1124 Y1007F/Y1008F): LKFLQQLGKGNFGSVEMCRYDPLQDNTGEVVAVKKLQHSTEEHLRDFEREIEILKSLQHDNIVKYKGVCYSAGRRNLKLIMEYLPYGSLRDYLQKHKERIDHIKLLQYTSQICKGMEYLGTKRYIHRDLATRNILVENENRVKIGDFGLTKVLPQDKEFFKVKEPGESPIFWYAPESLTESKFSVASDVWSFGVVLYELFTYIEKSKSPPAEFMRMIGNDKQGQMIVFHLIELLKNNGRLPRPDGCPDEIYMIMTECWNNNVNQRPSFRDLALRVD

| Kd | SMILES |
| --- | --- |
| 1000 to 5000 nM | CN(C(=O)Nc1cc(C(F)(F)F)cn(C)c1=O)[C@H]1CCN(c2cnc3[nH]nc(OC4COC4)c3c2)C[C@H]1F [Example I-101-b, 1-((3R,4S)-3-fluoro-1-(3-(oxetan-3-yloxy)-1H-pyrazolo[3,4-b]pyridin-5-yl)piperidin-4-yl)-1-methyl-3-(1-methyl-2-oxo-5-(trifluoromethyl)-1,2-dihydropyridin-3-yl)urea] |
| < 10 nM | CN(C(=O)Nc1cc(C(F)(F)F)cn(C)c1=O)[C@@H]1CCN(c2cnc3[nH]nc(OC[C@H]4COCCO4)c3c2)C[C@@H]1F [Example I-102-a, 1-((3S,4R)-1-(3-(((R)-1,4-dioxan-2-yl)methoxy)-1H-pyrazolo[3,4-b]pyridin-5-yl)-3-fluoropiperidin-4-yl)-1-methyl-3-(1-methyl-2-oxo-5-(trifluoromethyl)-1,2-dihydropyridin-3-yl)urea] |
| < 10 nM | CN(C(=O)Nc1cc(C(F)(F)F)cn(C)c1=O)[C@H]1CCN(c2cnc3[nH]nc(OC[C@H]4COCCO4)c3c2)C[C@H]1F [Example I-102-b, 1-((3R,4S)-1-(3-(((R)-1,4-dioxan-2-yl)methoxy)-1H-pyrazolo[3,4-b]pyridin-5-yl)-3-fluoropiperidin-4-yl)-1-methyl-3-(1-methyl-2-oxo-5-(trifluoromethyl)-1,2-dihydropyridin-3-yl)urea] |
| < 10 nM | CN(C(=O)Nc1cc(C(F)(F)F)cn(C)c1=O)[C@H]1CCN(c2cnc3[nH]c(=O)n(C)c3c2)C[C@H]1F [Example I-103-a, 1-((3R,4S)-3-fluoro-1-(1-methyl-2-oxo-2,3-dihydro-1H-imidazo[4,5-b]pyridin-6-yl)piperidin-4-yl)-1-methyl-3-(1-methyl-2-oxo-5-(trifluoromethyl)-1,2-dihydropyridin-3-yl)urea] |
| < 10 nM | CN(C(=O)Nc1cc(C(F)(F)F)cn(C)c1=O)[C@@H]1CCN(c2cnc3[nH]c(=O)n(C)c3c2)C[C@@H]1F [Example I-103-b, 1-((3S,4R)-3-fluoro-1-(1-methyl-2-oxo-2,3-dihydro-1H-imidazo[4,5-b]pyridin-6-yl)piperidin-4-yl)-1-methyl-3-(1-methyl-2-oxo-5-(trifluoromethyl)-1,2-dihydropyridin-3-yl)urea] |
| < 10 nM | COCCOc1n[nH]c2ncc(N3CC[C@@H](N(C)C(=O)Nc4cc(C(F)(F)F)cn(C)c4=O)[C@@H](F)C3)cc12 [Example I-104-a, 1-((3S,4R)-3-fluoro-1-(3-(2-methoxyethoxy)-1H-pyrazolo[3,4-b]pyridin-5-yl)piperidin-4-yl)-1-methyl-3-(1-methyl-2-oxo-5-(trifluoromethyl)-1,2-dihydropyridin-3-yl)urea] |
| < 10 nM | COCCOc1n[nH]c2ncc(N3CC[C@H](N(C)C(=O)Nc4cc(C(F)(F)F)cn(C)c4=O)[C@H](F)C3)cc12 [Example I-104-b, 1-((3R,4S)-3-fluoro-1-(3-(2-methoxyethoxy)-1H-pyrazolo[3,4-b]pyridin-5-yl)piperidin-4-yl)-1-methyl-3-(1-methyl-2-oxo-5-(trifluoromethyl)-1,2-dihydropyridin-3-yl)urea] |
| < 10 nM | C[C@H]1C[C@@H](N(C)C(=O)Nc2cc(C(F)(F)F)cn(C)c2=O)CCN1c1cnc2[nH]ncc2c1 [Example I-105-a, 1-methyl-1-((2S,4S)-2-methyl-1-(1H-pyrazolo[3,4-b]pyridin-5-yl)piperidin-4-yl)-3-(1-methyl-2-oxo-5-(trifluoromethyl)-1,2-dihydropyridin-3-yl)urea] |
| < 10 nM | C[C@@H]1C[C@H](N(C)C(=O)Nc2cc(C(F)(F)F)cn(C)c2=O)CCN1c1cnc2[nH]ncc2c1 [Example I-105-b, 1-methyl-1-((2R,4R)-2-methyl-1-(1H-pyrazolo[3,4-b]pyridin-5-yl)piperidin-4-yl)-3-(1-methyl-2-oxo-5-(trifluoromethyl)-1,2-dihydropyridin-3-yl)urea] |
| < 10 nM | COc1n[nH]c2ncc(N3CC[C@@H](N(C)C(=O)Nc4cc(C(F)(F)F)cn(C)c4=O)[C@@H](OC)C3)cc12 [Example I-106-a, 1-((3S,4R)-3-methoxy-1-(3-methoxy-1H-pyrazolo[3,4-b]pyridin-5-yl)piperidin-4-yl)-1-methyl-3-(1-methyl-2-oxo-5-(trifluoromethyl)-1,2-dihydropyridin-3-yl)urea] |
| < 10 nM | COc1n[nH]c2ncc(N3CC[C@H](N(C)C(=O)Nc4cc(C(F)(F)F)cn(C)c4=O)[C@H](OC)C3)cc12 [Example I-106-b, 1-((3R,4S)-3-methoxy-1-(3-methoxy-1H-pyrazolo[3,4-b]pyridin-5-yl)piperidin-4-yl)-1-methyl-3-(1-methyl-2-oxo-5-(trifluoromethyl)-1,2-dihydropyridin-3-yl)urea] |
| < 10 nM | CN(C(=O)Nc1cc(C(F)(F)F)cn(C)c1=O)[C@@H]1CCN(c2cnc3[nH]nc(OC4CCOCC4)c3c2)C[C@@H]1F [Example I-107-a, 1-((3S,4R)-3-fluoro-1-(3-((tetrahydro-2H-pyran-4-yl)oxy)-1H-pyrazolo[3,4-b]pyridin-5-yl)piperidin-4-yl)-1-methyl-3-(1-methyl-2-oxo-5-(trifluoromethyl)-1,2-dihydropyridin-3-yl)urea] |
| < 10 nM | CN(C(=O)Nc1cc(C(F)(F)F)cn(C)c1=O)[C@H]1CCN(c2cnc3[nH]nc(OC4CCOCC4)c3c2)C[C@H]1F [Example I-107-b, 1-((3R,4S)-3-fluoro-1-(3-((tetrahydro-2H-pyran-4-yl)oxy)-1H-pyrazolo[3,4-b]pyridin-5-yl)piperidin-4-yl)-1-methyl-3-(1-methyl-2-oxo-5-(trifluoromethyl)-1,2-dihydropyridin-3-yl)urea] |
| 10 to 50 nM | COc1n[nH]c2ncc(N3CC[C@@H](N(C)C(=O)Nc4cc(C(F)(F)F)cn(C)c4=O)[C@H](OC)C3)cc12 [Example I-108-a, 1-((3R,4R)-3-methoxy-1-(3-methoxy-1H-pyrazolo[3,4-b]pyridin-5-yl)piperidin-4-yl)-1-methyl-3-(1-methyl-2-oxo-5-(trifluoromethyl)-1,2-dihydropyridin-3-yl)urea] |
| 10 to 50 nM | COc1n[nH]c2ncc(N3CC[C@H](N(C)C(=O)Nc4cc(C(F)(F)F)cn(C)c4=O)[C@@H](OC)C3)cc12 [Example I-108-b, 1-((3S,4S)-3-methoxy-1-(3-methoxy-1H-pyrazolo[3,4-b]pyridin-5-yl)piperidin-4-yl)-1-methyl-3-(1-methyl-2-oxo-5-(trifluoromethyl)-1,2-dihydropyridin-3-yl)urea] |
| 10 to 50 nM | CO[C@@H]1CN(c2cnc3[nH]ncc3c2)CC[C@H]1N(C)C(=O)Nc1cc(C(F)(F)F)cn(C)c1=O [Example I-109-a, 1-((3R,4R)-3-methoxy-1-(1H-pyrazolo[3,4-b]pyridin-5-yl)piperidin-4-yl)-1-methyl-3-(1-methyl-2-oxo-5-(trifluoromethyl)-1,2-dihydropyridin-3-yl)urea] |
| 10 to 50 nM | CO[C@H]1CN(c2cnc3[nH]ncc3c2)CC[C@@H]1N(C)C(=O)Nc1cc(C(F)(F)F)cn(C)c1=O [Example I-109-b, 1-((3S,4S)-3-methoxy-1-(1H-pyrazolo[3,4-b]pyridin-5-yl)piperidin-4-yl)-1-methyl-3-(1-methyl-2-oxo-5-(trifluoromethyl)-1,2-dihydropyridin-3-yl)urea] |
| < 10 nM | COCc1cc2nc(N3CC[C@@H](N(C)C(=O)Nc4cc(C(F)(F)F)cn(C)c4=O)C(F)(F)C3)cnc2[nH]1 [Example I-110-a, (R)-1-(3,3-difluoro-1-(6-(methoxymethyl)-5H-pyrrolo[2,3-b]pyrazin-2-yl)piperidin-4-yl)-1-methyl-3-(1-methyl-2-oxo-5-(trifluoromethyl)-1,2-dihydropyridin-3-yl)urea] |
| < 10 nM | COCc1cc2nc(N3CC[C@H](N(C)C(=O)Nc4cc(C(F)(F)F)cn(C)c4=O)C(F)(F)C3)cnc2[nH]1 [Example I-110-b, (S)-1-(3,3-difluoro-1-(6-(methoxymethyl)-5H-pyrrolo[2,3-b]pyrazin-2-yl)piperidin-4-yl)-1-methyl-3-(1-methyl-2-oxo-5-(trifluoromethyl)-1,2-dihydropyridin-3-yl)urea] |
| < 10 nM | COCc1cc2nc(N3CC[C@@H](N(C)C(=O)Nc4cc(C(F)(F)F)cn(C)c4=O)[C@@H](F)C3)cnc2[nH]1 [Example I-111-a, 1-((3S,4R)-3-fluoro-1-(6-(methoxymethyl)-5H-pyrrolo[2,3-b]pyrazin-2-yl)piperidin-4-yl)-1-methyl-3-(1-methyl-2-oxo-5-(trifluoromethyl)-1,2-dihydropyridin-3-yl)urea] |
| < 10 nM | COCc1cc2nc(N3CC[C@H](N(C)C(=O)Nc4cc(C(F)(F)F)cn(C)c4=O)[C@H](F)C3)cnc2[nH]1 [Example I-111-b, 1-((3R,4S)-3-fluoro-1-(6-(methoxymethyl)-5H-pyrrolo[2,3-b]pyrazin-2-yl)piperidin-4-yl)-1-methyl-3-(1-methyl-2-oxo-5-(trifluoromethyl)-1,2-dihydropyridin-3-yl)urea] |
| 10 to 50 nM | CN(C(=O)Nc1cc(C(F)(F)F)cn(C)c1=O)C1CCN(c2cnc3[nH]n(C4CCOCC4)c(=O)c3c2)CC1 [Example I-112, 1-methyl-3-(1-methyl-2-oxo-5-(trifluoromethyl)-1,2-dihydropyridin-3-yl)-1-(1-(3-oxo-2-(tetrahydro-2H-pyran-4-yl)-2,3-dihydro-1H-pyrazolo[3,4-b]pyridin-5-yl)piperidin-4-yl)urea] |
| 50 to 1000 nM | COCc1cc2nc(N3CC[C@H](N(C)C(=O)Nc4cc(C(F)(F)F)cn(C)c4=O)[C@@H](OC)C3)cnc2[nH]1 [Example I-113-a, 1-((3S,4S)-3-methoxy-1-(6-(methoxymethyl)-5H-pyrrolo[2,3-b]pyrazin-2-yl)piperidin-4-yl)-1-methyl-3-(1-methyl-2-oxo-5-(trifluoromethyl)-1,2-dihydropyridin-3-yl)urea] |
| 1000 to 5000 nM | COCc1cc2nc(N3CC[C@@H](N(C)C(=O)Nc4cc(C(F)(F)F)cn(C)c4=O)[C@H](OC)C3)cnc2[nH]1 [Example I-113-b, 1-((3R,4R)-3-methoxy-1-(6-(methoxymethyl)-5H-pyrrolo[2,3-b]pyrazin-2-yl)piperidin-4-yl)-1-methyl-3-(1-methyl-2-oxo-5-(trifluoromethyl)-1,2-dihydropyridin-3-yl)urea] |
